Measurements from US20240390340A1 (INCYTE CORPORATION, priority 2023, published 2024).

Experiments:
KRAS = KRAS inhibition, assay not specified (at least one assay described herein); conditions: Peak 1 versus Peak 2 of prep. LCMS; assay not stated
KRAS G12D = KRAS G12D (Homo sapiens, UniProt P01116, G12D); test: GDP-GTP exchange assay (bodipy-GDP/GppNHp, SOS1), KRAS G12D; type: biochemical; conditions: Table H, column G12D; for compounds isolated as several atropisomers/diastereoisomers the value for the most potent isomer is quoted; read-out: KRAS G12D exchange assay IC50
KRAS G12D, sequence (P01116 1-188 isoform P01116-2 G12D): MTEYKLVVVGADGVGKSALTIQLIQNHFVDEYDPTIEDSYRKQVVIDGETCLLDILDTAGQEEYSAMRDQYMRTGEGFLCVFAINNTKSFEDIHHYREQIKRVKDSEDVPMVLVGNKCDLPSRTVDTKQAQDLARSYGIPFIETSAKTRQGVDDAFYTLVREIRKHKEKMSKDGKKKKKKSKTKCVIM

Caco-2 cells = test: Caco2 assay (Papp A-B); type: in vitro ADME; conditions: test compound 50 μM, 120 min, 37° C.
Procedure, shortened: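 Caco-2 monolayers grown 22–25 days on Transwells (TEER 300 Ω·cm^2) were dosed apically with 50 μM compound in HBSS; basolateral receiver held HBSS with 4% BSA. Incubation 120 min at 37° C, 5% CO2; donor and receiver samples quantified by LCMS and Papp A-B calculated from receiver-side cumulative flux slope.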

KRAS G12V = KRAS G12V (Homo sapiens, UniProt P01116, G12V); test: GDP-GTP exchange assay (bodipy-GDP/GppNHp, SOS1), KRAS G12V; type: biochemical; conditions: Table H, column G12V; for compounds isolated as several atropisomers/diastereoisomers the value for the most potent isomer is quoted; read-out: KRAS G12V exchange assay IC50
KRAS G12V, sequence (P01116 1-188 isoform P01116-2 G12V): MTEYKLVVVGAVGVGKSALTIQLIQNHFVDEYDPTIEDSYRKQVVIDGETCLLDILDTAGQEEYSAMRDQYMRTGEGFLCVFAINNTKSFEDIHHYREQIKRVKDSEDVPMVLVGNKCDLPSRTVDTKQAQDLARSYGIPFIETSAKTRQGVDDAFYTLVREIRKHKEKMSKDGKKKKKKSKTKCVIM

Row | IC50 (KRAS G12D) [nM] | Caco-2 (Caco-2 cells) | IC50 (KRAS G12V) [nM] | Compound | potency of the separated diastereoisomer (atropisomer) in words (KRAS)
1 | – | – | – | COc1cc(O[C@H]2C[C@H](c3cc4c([C@@H](C)O)nc5c(F)c(-c6cccc(Cl)c6Cl)c(CCC#N)cc5c4n3[C@H]3[C@H]4CN[C@@H]3C4)N(C(=O)C3CC3)[C@@H]2C)c(F)cn1 (single isomer, unassigned) [Example 51, Diastereomer 1 (Peak 1)] | potent
2 | – | – | – | COc1nccc(O[C@H]2C[C@H](c3cc4c([C@@H](C)O)nc5c(F)c(-c6cccc(Cl)c6Cl)c(CCC#N)cc5c4n3[C@H]3[C@H]4CN[C@@H]3C4)N(C(=O)C3CC3)C2)c1F (single isomer, unassigned) [Example 53, Diastereomer 1 (Peak 1)] | potent
3 | – | – | – | COC[C@@H]1[C@@H](Oc2cc(OC)ncc2F)C[C@H](c2cc3c([C@@H](C)O)nc4c(F)c(-c5cccc(Cl)c5Cl)c(CCC#N)cc4c3n2[C@H]2[C@H]3CN[C@@H]2C3)N1C(=O)C1CC1 (single isomer, unassigned) | potent
4 | – | – | – | Cc1nc2c(F)c(-c3cccc(Cl)c3Cl)c(CCC#N)cc2c2c1cc([C@H]1C[C@H](n3cc(C(C)(C)C)nn3)CN1C(=O)C1CC1)n2[C@H]1[C@H]2CN[C@@H]1C2 (single isomer, unassigned) [Example 4, Diastereomer 1 (Peak 1)] | potent
5 | – | – | – | COc1ccc(O[C@H]2C[C@H](c3cc4c([C@@H](C)O)nc5c(F)c(-c6cccc(Cl)c6Cl)c(CCC#N)cc5c4n3[C@H]3[C@H]4CN[C@@H]3C4)N(C(=O)C3CC3)C2)cn1 (single isomer, unassigned) [Example 76, Diastereomer 1 (Peak 1)] | potent
6 | – | – | – | C[C@@H](O)c1nc2c(F)c(-c3cccc(Cl)c3Cl)c(CCC#N)cc2c2c1cc([C@H]1C[C@H](Oc3cc(C4CC4)on3)CN1C(=O)C1CC1)n2[C@H]1[C@H]2CN[C@@H]1C2 (single isomer, unassigned) [Example 77, Diastereomer 1 (Peak 1)] | potent
7 | – | – | – | C[C@@H]1[C@@H](Oc2cc(F)ccn2)C[C@H](c2cc3c([C@@H](C)O)nc4c(F)c(-c5cccc(Cl)c5Cl)c(CCC#N)cc4c3n2[C@H]2[C@H]3CN[C@@H]2C3)N1C(=O)C1CC1 (single isomer, unassigned) [Example 63, Diastereomer 1 (Peak 1)] | potent
8 | ≤ 100 | + (a Caco-2 value of ≤0.5) | ≤ 100 | Cc1nc2c(F)c(-c3cccc(Cl)c3Cl)c(CCC#N)cc2c2c1cc([C@H]1C[C@H](Oc3cccc(N4CC(F)C4)n3)CN1C(=O)C1CC1)n2[C@H]1[C@H]2CN[C@@H]1C2 [Example 65, 3-(1-((1R,4R,5S)-2-Azabicyclo[2.1.1]hexan-5-yl)-2-((2R,4S)-1-(cyclopropanecarbonyl)-4-((6-(3-fluoroazetidin-1-yl)pyridin-2-yl)oxy)pyrrolidin-2-yl)-7-(2,3-dichlorophenyl)-6-fluoro-4-methyl-1H-pyrrolo[3,2-c]quinolin-8-yl)propanenitrile] | –
9 | ≤ 100 | + (a Caco-2 value of ≤0.5) | ≤ 100 | Cc1nc2c(F)c(-c3cccc(Cl)c3Cl)c(CCC#N)cc2c2c1cc([C@H]1C[C@H](n3nncc3C3CCCC3)CN1C(=O)C1CC1)n2[C@H]1[C@H]2CN[C@@H]1C2 [Example 71, 3-(1-((1R,4R,5S)-2-Azabicyclo[2.1.1]hexan-5-yl)-2-((2R,4S)-4-(5-cyclopentyl-1H-1,2,3-triazol-1-yl)-1-(cyclopropanecarbonyl)pyrrolidin-2-yl)-7-(2,3-dichlorophenyl)-6-fluoro-4-methyl-1H-pyrrolo[3,2-c]quinolin-8-yl)propanenitrile] | –
10 | ≤ 100 | + (a Caco-2 value of ≤0.5) | ≤ 100 | Cc1nc2c(F)c(-c3cccc(Cl)c3Cl)c(CCC#N)cc2c2c1cc([C@H]1C[C@H](OCc3ccsn3)CN1C(=O)C1CC1)n2[C@H]1[C@H]2CN[C@@H]1C2 [Example 14] | –
